{"source": "paper PMC6268188", "about": "“Comparative Studies of the (Anti) Mutagenicity of Baccharis dracunculifolia and Artepillin C by the Bacterial Reverse Mutation Test” (Molecules, 2012)", "key": {"[1]": {"tested_on": "S. typhimurium TA97a"}, "[2]": {"tested_on": "DNA damage induced by methyl methanesulfonate and doxorubicin", "details": "micronucleus and comet assays; cited from earlier work"}, "[3]": {"tested_on": "S. typhimurium TA98"}, "[4]": {"tested_on": "S. typhimurium TA102", "test": "Antimutagenicity assay (Ames test with known mutagens), strain TA102", "type": "cell-based, Salmonella typhimurium"}, "[5]": {"tested_on": "S. typhimurium TA100"}, "[6]": {"details": "0.69 µg/plate + AF 10.0 μg/plate, TA 102, + S9"}, "[7]": {"details": "1.37 µg/plate + AF 10.0 μg/plate, TA 102, + S9"}, "[8]": {"details": "1.37 µg/plate + MMC 0.5 μg/plate, TA 102, − S9"}, "[9]": {"details": "2.75 µg/plate + AF 10.0 μg/plate, TA 102, + S9"}, "[10]": {"details": "2.75 µg/plate + MMC 0.5 μg/plate, TA 102, − S9"}, "[11]": {"details": "5.49 µg/plate + AF 10.0 μg/plate, TA 102, + S9"}, "[12]": {"details": "5.49 µg/plate + MMC 0.5 μg/plate, TA 102, − S9"}, "[13]": {"details": "[…] + AF 10.0 μg/plate, TA 102, + S9"}, "[14]": {"details": "[…] + MMC 0.5 μg/plate, TA 102, − S9"}, "[15]": {"details": "0.69 µg/plate + AFB1 0.5 μg/plate, TA 100, + S9"}, "[16]": {"details": "0.69 µg/plate + SA 1.25 μg/plate, TA 100, − S9"}, "[17]": {"details": "1.37 µg/plate + AFB1 0.5 μg/plate, TA 100, + S9"}, "[18]": {"details": "1.37 µg/plate + SA 1.25 μg/plate, TA 100, − S9"}, "[19]": {"details": "2.75 µg/plate + AFB1 0.5 μg/plate, TA 100, + S9"}}, "note": "“And” between values parts separate entries of the source, which are not always exact repeats. Identical values can stand only once. Like-named read-outs stand apart in the source and are kept apart here. Marks after values point to notes of the source that are not given here."}
{"smiles": "CC(C)=CCc1cc(/C=C/C(=O)O)cc(CC=C(C)C)c1O", "note": "[ArtC, 3-{4-hydroxy-3,5-di(3-methyl-2-butenyl)phenyl}-2(E)-propenoic acid]", "values": [{"measurement": "MI (mutagenicity index)", "setting": "[1]; 0.69 µg/plate, TA 97, + S9", "result": 1.2}, {"measurement": "Number of revertants (M ± SD)/ plate", "setting": "[1]; 0.69 µg/plate, TA 97, + S9", "result": "194 ± 3", "unit": "revertants/plate"}, {"measurement": "MI (mutagenicity index)", "setting": "[1]; 0.69 µg/plate, TA 97, − S9", "result": 1.4}, {"measurement": "Number of revertants (M ± SD)/ plate", "setting": "[1]; 0.69 µg/plate, TA 97, − S9", "result": "207 ± 3", "unit": "revertants/plate"}, {"measurement": "MI (mutagenicity index)", "setting": "[1]; 1.37 µg/plate, TA 97, + S9", "result": 1.1}, {"measurement": "Number of revertants (M ± SD)/ plate", "setting": "[1]; 1.37 µg/plate, TA 97, + S9", "result": "174 ± 1", "unit": "revertants/plate"}, {"measurement": "MI (mutagenicity index)", "setting": "[1]; 1.37 µg/plate, TA 97, − S9", "result": 1.5}, {"measurement": "Number of revertants (M ± SD)/ plate", "setting": "[1]; 1.37 µg/plate, TA 97, − S9", "result": "221 ± 6", "unit": "revertants/plate"}, {"measurement": "MI (mutagenicity index)", "setting": "[1]; 2.75 µg/plate, TA 97, + S9", "result": 1.1}, {"measurement": "Number of revertants (M ± SD)/ plate", "setting": "[1]; 2.75 µg/plate, TA 97, + S9", "result": "175 ± 4", "unit": "revertants/plate"}, {"measurement": "MI (mutagenicity index)", "setting": "[1]; 2.75 µg/plate, TA 97, − S9", "result": 1.6}, {"measurement": "Number of revertants (M ± SD)/ plate", "setting": "[1]; 2.75 µg/plate, TA 97, − S9", "result": "246 ± 5", "unit": "revertants/plate"}, {"measurement": "MI (mutagenicity index)", "setting": "[1]; 5.49 µg/plate, TA 97, + S9", "result": 1.1}, {"measurement": "Number of revertants (M ± SD)/ plate", "setting": "[1]; 5.49 µg/plate, TA 97, + S9", "result": "175 ± 1", "unit": "revertants/plate"}, {"measurement": "MI (mutagenicity index)", "setting": "[1]; 5.49 µg/plate, TA 97, − S9", "result": 1.4}, {"measurement": "Number of revertants (M ± SD)/ plate", "setting": "[1]; 5.49 µg/plate, TA 97, − S9", "result": "207 ± 5", "unit": "revertants/plate"}, {"measurement": "protection against DNA damage", "setting": "[2]", "result": "able to protect against DNA damage"}, {"measurement": "MI (mutagenicity index)", "setting": "[3]; 0.69 µg/plate, TA 98, + S9", "result": 0.9}, {"measurement": "Number of revertants (M ± SD)/ plate", "setting": "[3]; 0.69 µg/plate, TA 98, + S9", "result": "28 ± 3", "unit": "revertants/plate"}, {"measurement": "MI (mutagenicity index)", "setting": "[3]; 0.69 µg/plate, TA 98, − S9", "result": 1.0}, {"measurement": "Number of revertants (M ± SD)/ plate", "setting": "[3]; 0.69 µg/plate, TA 98, − S9", "result": "21 ± 3", "unit": "revertants/plate"}, {"measurement": "MI (mutagenicity index)", "setting": "[3]; 1.37 µg/plate, TA 98, + S9", "result": 1.1}, {"measurement": "Number of revertants (M ± SD)/ plate", "setting": "[3]; 1.37 µg/plate, TA 98, + S9", "result": "32 ± 1", "unit": "revertants/plate"}, {"measurement": "MI (mutagenicity index)", "setting": "[3]; 1.37 µg/plate, TA 98, − S9", "result": 1.2}, {"measurement": "Number of revertants (M ± SD)/ plate", "setting": "[3]; 1.37 µg/plate, TA 98, − S9", "result": "24 ± 4", "unit": "revertants/plate"}, {"measurement": "MI (mutagenicity index)", "setting": "[3]; 2.75 µg/plate, TA 98, + S9", "result": 1.0}, {"measurement": "Number of revertants (M ± SD)/ plate", "setting": "[3]; 2.75 µg/plate, TA 98, + S9", "result": "29 ± 3", "unit": "revertants/plate"}, {"measurement": "MI (mutagenicity index)", "setting": "[3]; 2.75 µg/plate, TA 98, − S9", "result": 1.4}, {"measurement": "Number of revertants (M ± SD)/ plate", "setting": "[3]; 2.75 µg/plate, TA 98, − S9", "result": "28 ± 5", "unit": "revertants/plate"}, {"measurement": "MI (mutagenicity index)", "setting": "[3]; 5.49 µg/plate, TA 98, + S9", "result": 1.1}, {"measurement": "Number of revertants (M ± SD)/ plate", "setting": "[3]; 5.49 µg/plate, TA 98, + S9", "result": "32 ± 2", "unit": "revertants/plate"}, {"measurement": "MI (mutagenicity index)", "setting": "[3]; 5.49 µg/plate, TA 98, − S9", "result": 1.5}, {"measurement": "Number of revertants (M ± SD)/ plate", "setting": "[3]; 5.49 µg/plate, TA 98, − S9", "result": "29 ± 1", "unit": "revertants/plate"}, {"measurement": "Number of revertants (M ± SD)/ plate", "setting": "[4]", "result": "879 ± 11 revertants/plate and 529 ± 20 revertants/plate"}, {"measurement": "% inhibition", "setting": "[4]; [6]", "result": 41, "unit": "%"}, {"measurement": "Number of revertants (M ± SD)/ plate", "setting": "[4]; [6]", "result": "645 ± 23", "unit": "revertants/plate"}, {"measurement": "antimutagenic effect class", "setting": "[4]; [6]", "result": "*** (strong antimutagenic effect (> 40% inhibition))"}, {"measurement": "Number of revertants (M ± SD)/ plate", "setting": "[4]; 0.69 µg/plate + MMC 0.5 μg/plate, TA 102, − S9", "result": "1096 ± 19", "unit": "revertants/plate"}, {"measurement": "% inhibition", "setting": "[4]; [7]", "result": 46, "unit": "%"}, {"measurement": "Number of revertants (M ± SD)/ plate", "setting": "[4]; [7]", "result": "595 ± 25", "unit": "revertants/plate"}, {"measurement": "antimutagenic effect class", "setting": "[4]; [7]", "result": "*** (strong antimutagenic effect (> 40% inhibition))"}, {"measurement": "% inhibition", "setting": "[4]; [8]", "result": 5, "unit": "%"}, {"measurement": "Number of revertants (M ± SD)/ plate", "setting": "[4]; [8]", "result": "1022 ± 18", "unit": "revertants/plate"}, {"measurement": "antimutagenic effect class", "setting": "[4]; [8]", "result": "* (no antimutagenic effect (< 25% inhibition))"}, {"measurement": "% inhibition", "setting": "[4]; [9]", "result": 48, "unit": "%"}, {"measurement": "Number of revertants (M ± SD)/ plate", "setting": "[4]; [9]", "result": "566 ± 17", "unit": "revertants/plate"}, {"measurement": "antimutagenic effect class", "setting": "[4]; [9]", "result": "*** (strong antimutagenic effect (> 40% inhibition))"}, {"measurement": "% inhibition", "setting": "[4]; [10]", "result": 7, "unit": "%"}, {"measurement": "Number of revertants (M ± SD)/ plate", "setting": "[4]; [10]", "result": "994 ± 25", "unit": "revertants/plate"}, {"measurement": "antimutagenic effect class", "setting": "[4]; [10]", "result": "* (no antimutagenic effect (< 25% inhibition))"}, {"measurement": "% inhibition", "setting": "[4]; [11]", "result": 56, "unit": "%"}, {"measurement": "Number of revertants (M ± SD)/ plate", "setting": "[4]; [11]", "result": "488 ± 14", "unit": "revertants/plate"}, {"measurement": "antimutagenic effect class", "setting": "[4]; [11]", "result": "*** (strong antimutagenic effect (> 40% inhibition))"}, {"measurement": "% inhibition", "setting": "[4]; [12]", "result": 12, "unit": "%"}, {"measurement": "Number of revertants (M ± SD)/ plate", "setting": "[4]; [12]", "result": "943 ± 17", "unit": "revertants/plate"}, {"measurement": "antimutagenic effect class", "setting": "[4]; [12]", "result": "* (no antimutagenic effect (< 25% inhibition))"}, {"measurement": "effect on MMC-induced mutagenicity", "setting": "[4]; TA102, MMC", "result": "did not affect"}, {"measurement": "% inhibition", "setting": "[4]; [13]", "result": 52, "unit": "%"}, {"measurement": "antimutagenic effect class", "setting": "[4]; [13]", "result": "*** (strong antimutagenic effect (> 40% inhibition))"}, {"measurement": "% inhibition", "setting": "[4]; [14]", "result": 18, "unit": "%"}, {"measurement": "antimutagenic effect class", "setting": "[4]; [14]", "result": "* (no antimutagenic effect (< 25% inhibition))"}, {"measurement": "% inhibition", "setting": "[5]", "result": "30 ** %"}, {"measurement": "Number of revertants (M ± SD)/ plate", "setting": "[5]", "result": "1885 ± 25 revertants/plate and 1507 ± 43 revertants/plate"}, {"measurement": "antimutagenic effect class", "setting": "[5]", "result": "30 ** (key: *: no antimutagenic effect (< 25% inhibition); **: moderate effect (25% - 40% inhibition); ***: strong antimutagenic effect (> 40% inhibition))"}, {"measurement": "% inhibition", "setting": "[5]; [15]", "result": 26, "unit": "%"}, {"measurement": "Number of revertants (M ± SD)/ plate", "setting": "[5]; [15]", "result": "1595 ± 37", "unit": "revertants/plate"}, {"measurement": "% inhibition", "setting": "[5]; [16]", "result": 16, "unit": "%"}, {"measurement": "Number of revertants (M ± SD)/ plate", "setting": "[5]; [16]", "result": "1833 ± 48", "unit": "revertants/plate"}, {"measurement": "antimutagenic effect class", "setting": "[5]; [16]", "result": "* (no antimutagenic effect (< 25% inhibition))"}, {"measurement": "% inhibition", "setting": "[5]; [17]", "result": 24, "unit": "%"}, {"measurement": "Number of revertants (M ± SD)/ plate", "setting": "[5]; [17]", "result": "1639 ± 33", "unit": "revertants/plate"}, {"measurement": "antimutagenic effect class", "setting": "[5]; [17]", "result": "* (no antimutagenic effect (< 25% inhibition))"}, {"measurement": "% inhibition", "setting": "[5]; [18]", "result": 11, "unit": "%"}, {"measurement": "Number of revertants (M ± SD)/ plate", "setting": "[5]; [18]", "result": "1957 ± 36", "unit": "revertants/plate"}, {"measurement": "antimutagenic effect class", "setting": "[5]; [18]", "result": "* (no antimutagenic effect (< 25% inhibition))"}, {"measurement": "% inhibition", "setting": "[5]; [19]", "result": 27, "unit": "%"}, {"measurement": "Number of revertants (M ± SD)/ plate", "setting": "[5]; [19]", "result": "1575 ± 11", "unit": "revertants/plate"}]}
